Experimental data reported in patent US20120022048A1, “Anti-proliferative substituted pyrazolo[3,4-d]pyrimidines derivatives (SPP) to inhibit immune activation, virus replication and tumor growth” (priority 2010, published 2012).
Entries after “also recorded” stand apart in the source; their conditions may differ. Where two headings read alike, the source gives them in different places.

Legend:
[1] = test system: primary human CD4 T-lymphocytes; assay: Cell hyperproliferation in primary T cells (CFSE staining, mitotic index); format: cell-based; conditions: for anti-proliferative activity (in words) / mitotic index %: SPPs 10 μM, Imatinib 10 μM; for anti-proliferative activity (in words): compared with HU 100 μM, HU+ddI or untreated control; for decrease/inhibition of cell proliferation compared to not treated control: SPPs and Imatinib 10 μM; for decrease/inhibition of cell proliferation compared to not treated control / mitotic index %: HU 100 μM; for Anti-proliferative capacity: class symbol, Table 6; for mitotic index %: % of not treated control (100%), day 10
Method: We built up an experimental model using primary T cells to study the activity of the compounds on induced hyperproliferation of cells, which is a characteristic of both chronic viral diseases and cancer including HIV and leukemia.
(§1) Unstimulated (quiescent/resting, day 0 to 5) primary human CD4 T-lymphocytes were obtained by magnetic bead separation from healthy, normal donors. After five days in culture, cells were activated with PHA (5 μg/ml) to induce hyperproliferation then, at day 7, IL-2 (20 U/ml) was added (stimulated, day 6 to 10). All available compounds were tested at a concentration of 10 μM. […] At day 10, cells were harvested. Proliferation of T cells, cultured as described above, was studied by staining the cells with carboxyfluorescein diacetate-succinimidyl ester (CFSE) at day 0 (immediately after infection). For data analysis, the mitotic index (M) was used, calculating the sum of mitotic events at each proliferation cycle. To extract a relative number, M was normalized to the total number of cells acquired using the equation M=Σ[(Xn(T)−Xn(T)/2^n)], that gives the number of mitotic events from the experimentally obtained values of the proportion of T cells under each division peak n (Xn) and the total T cells (T). To study the effect of the compounds on apoptosis T cells were cultured as described above and at day 10 cells were stained with Annexin V and 7-AAD, in order to determine the percentage of total apoptotic events.

[2] = test system: primary human CD4 T-lymphocytes; assay: Apoptosis in primary CD4 T cells (Annexin V and 7-AAD staining); format: cell-based; conditions: for apoptotic effect (in words) / apoptosis %: SPPs 10 μM; for apoptotic effect (in words): compared with HU 100 μM, HU+ddI or untreated control; for apoptosis %: total apoptotic events compared to untreated control, day 10, Imatinib 10 μM, HU 100 μM, ddI 2 μM
Method: as §1
We determined the capacity of the compounds to affect the percentages of apoptotic events after 10 days of treatment in primary CD4 T cells.

HIV-1 NL 4.3 [3] = assay: HIV-1 replication in quiescent CD4 T cells (p24 Ag ELISA); format: cell-based; conditions: for inhibition at 10 µM: Human immunodeficiency virus 1, CD4+ T, read-out: reduction of HIV-1 p24 production / inhibition of HIV replication compared to untreated control; for anti-HIV activity in quiescent cells (in words) / HIV quiescent cells (percentage p24 compared to the untreated control): SPPs 10 μM; for anti-HIV activity in quiescent cells (in words): compared with HU 100 μM, HU+ddI or untreated control; for Antiviral activity in quiescent cells: class symbol, Table 6; for HIV quiescent cells (percentage p24 compared to the untreated control): quiescent CD4 T cells, day 10, HU 100 μM, HU 100 μM+ddI 2 μM
Method: Unstimulated (quiescent/resting, day 0 to 5) human CD4 T-lymphocytes, obtained by magnetic bead separation from healthy, normal donors, were infected with HIV-1 NL 4.3. After five days in culture, cells were stimulated with PHA (5 μg/ml) to induce proliferation, and then, at day 7, IL-2 (20 U/ml) was added (stimulated, day 6 to 10). All available compounds were tested at a concentration of 10 μM. HU 100 μM and HU 100 μM+ddI 2 μM were also employed as comparators and the negative control was left untreated. At day 10, cells and supernatants were harvested and HIV-1 p24 Ag was measured by ELISA. HIV replication was expressed as percentage p24 compared to the untreated control.

HIV-1 NL 4.3 [4] = assay: HIV-1 replication in activated T cells (PBMC, p24 Ag ELISA); format: cell-based; conditions: for inhibition at 10 µM: Human immunodeficiency virus 1, T-cell, read-out: inhibition of p24 production / HIV replication compared to untreated control; for anti-HIV activity in activated T cells (in words): SPPs 10 μM, compared with HU 100 μM, HU+ddI or untreated control; for Antiviral activity in activated cells: class symbol, Table 6; for HIV activated cells (% p24 compared to not treated control): 7 days, SPPs and Imatinib 10 μM, HU 100 μM, ddI 2 μM
Method: The experimental setup described below allows us to detect direct antiviral activity of a compound.
Human PBMC, obtained from healthy, normal donors, were stimulated for two days with PHA 5 μg/ml. Then cells were infected with HIV-1 NL 4.3, IL-2 was added (20 U/ml), cells were plated (10^5 cells per well in 200 μl) and drug treatment started. […] The control was left untreated. After 7 days of incubation at 37° C. supernatants were harvested and HIV-1 p24 Ag was measured by ELISA.

[5] = test system: Human peripheral blood mononuclear cells (PBMC); conditions: 7 days

Structure (SMILES) | anti-proliferative activity (in words) [1] | decrease/inhibition of cell proliferation compared to not treated control [1] [%] | increase in apoptotic events compared to the control ([2]; 10 μM, 10 days) [%] | apoptotic effect (in words) [2] | inhibition at 10 µM (HIV-1 NL 4.3 [3]; quiescent cells, 10 μM) [%] | anti-HIV activity in quiescent cells (in words) (HIV-1 NL 4.3 [3]) | inhibition at 10 µM (HIV-1 NL 4.3 [4]; activated T cells, 10 μM) [%] | anti-HIV activity in activated T cells (in words) (HIV-1 NL 4.3 [4]) | % viability ([5]; human, 10 μM) [%] | more anti-proliferative than HU+ddI ([1]; 10 μM, spider graph FIG. 3) | Anti-proliferative capacity [1] | inhibition at 10 µM (HIV-1 NL 4.3 [3]) [%] | Antiviral activity in quiescent cells (HIV-1 NL 4.3 [3]) | inhibition at 10 µM (HIV-1 NL 4.3 [4]) [%] | Antiviral activity in activated cells (HIV-1 NL 4.3 [4]) | mitotic index % [1] [%] | apoptosis % [2] [%] | HIV quiescent cells (percentage p24 compared to the untreated control) (HIV-1 NL 4.3 [3]) [%] | HIV activated cells (% p24 compared to not treated control) (HIV-1 NL 4.3 [4]; activated T cells) [%] | % viability ([5]; % of not treated control (100%), SPPs 10 μM, Imatinib 10 μM, HU 100 μM, HU 100 μM+ddI 2 μM) [%]
CSc1nc(Nc2cccc(Cl)c2)c2cnn(CC(Cl)c3ccccc3)c2n1 (centres unmarked) [VS1-011, N-(3-chlorophenyl)-1-(2-chloro-2-phenylethyl)-6-(methylthio)-1H-pyrazolo[3,4-d]pyrimidin-4-amine] | increased anti-proliferative capacity compared to 100 μM HU | 100 | 182 | induced apoptosis; also recorded: extremely proapoptotic; also recorded: strongly proapoptotic | 80 | active as antivirals | 85 | active as antivirals | 70.4 ± 16.9 |  |  |  |  |  |  |  |  |  |  | 
Fc1ccc(CNc2ncnc3c2cnn3CC(Cl)c2ccc(Cl)cc2)cc1 (centres unmarked) [VS1-029, 1-[2-chloro-2-(4-chlorophenyl)ethyl]-N-(4-fluorobenzyl)-1H-pyrazolo[3,4-d]pyrimidin-4-amine] | good anti-proliferative capacity (superior to 100 μM HU) | 95 |  | no more apoptotic than HU; also recorded: slight increase |  | good anti-HIV activity |  | good anti-HIV activity | 96.8 ± 4.5 | about 20% | +++ (excellent (+++, greater than 70% activity)) | 94 | +++ (excellent (+++, greater than 70% activity)) | 88 | +++ (excellent (+++, greater than 70% activity)) |  |  |  |  | 
CCOCCNc1nc(SC)nc2c1cnn2CC(Cl)c1ccccc1 (centres unmarked) [VS1-033] | comparable or even greater than HU |  |  |  |  |  |  |  |  |  |  |  |  |  |  | 15.4 ± 6.7 | 138.6 ± 49.7 | 15.0 ± 3.0 | 57.1 ± 10.2 | 108.1 ± 3.5
CCCNc1nc(SC)nc2c1cnn2CC(Cl)c1ccccc1 (centres unmarked) [VS1-031] | greater or equal to that of 100 μM HU |  |  | did not induce apoptosis |  | effective against HIV |  | effective against HIV |  |  | +++ (excellent (+++, greater than 70% activity)) |  | +++ (excellent (+++, greater than 70% activity)) |  | ++ (good (++, 50 to 70% activity)) | 23.9 ± 18.4 | 114.4 ± 39.9 | 19.1 ± 1.8 | 31.6 ± 21.7 | 
C(=Cn1ncc2c(NCCc3ccccc3)ncnc21)c1ccccc1 [VS1-014] |  |  |  |  |  |  |  |  |  |  |  |  |  |  |  | 76.9 ± 2.7 | 135.2 ± 19.3 | 74.3 ± 22.8 | 92.4 ± 24.3 | 
C(=Cn1ncc2c(N3CCCCCC3)ncnc21)c1ccccc1 [VS1-001] | less effective than HU |  |  | did not induce apoptosis |  | very effective inhibitor of HIV replication |  | very effective inhibitor of HIV replication |  |  |  |  |  |  |  | 52.0 ± 2.0 | 80.3 ± 19.2 | 19.6 ± 20.3 | 12.5 ± 2.3 | 
CCCNc1nc(N(C)C)nc2c1cnn2CC(Cl)c1ccccc1 (centres unmarked) [VS1-023] |  |  |  | not proapoptotic |  |  |  |  |  |  |  |  |  |  |  | 33.2 ± 6.5 | 116.0 ± 14.7 | 8.7 ± 5.6 | 36.6 ± 15.1 | 
CSc1nc(NCCc2cccc(Cl)c2)c2cnn(CC(Cl)c3ccccc3)c2n1 (centres unmarked) [VS1-028] | good anti-proliferative capacity (superior to 100 μM HU) |  |  | no more apoptotic than HU |  | good anti-HIV activity |  | good anti-HIV activity |  |  | +++ (excellent (+++, greater than 70% activity)) |  | +++ (excellent (+++, greater than 70% activity)) |  | +++ (excellent (+++, greater than 70% activity)) | 15.2 ± 15.7 | 108.6 ± 30.8 | 4.4 ± 2.9 | 25.7 ± 19.8 | 
CSc1nc(N2CCOCC2)c2cnn(CC(Cl)c3ccccc3)c2n1 (centres unmarked) [VS1-030] | greater than 100 μM HU and 10 μM Imatinib |  |  | proapoptotic |  |  |  |  |  |  |  |  |  |  |  | 15.5 ± 4.8 | 174.4 ± 16.4 | 17.4 ± 10.8 | 34.5 ± 13.4 | 
CSc1nc(NCc2ccccc2Cl)c2cnn(CC(Cl)c3ccccc3)c2n1 (centres unmarked) [VS1-036] | greater or equal to that of 100 μM HU |  |  | did not induce apoptosis |  | effective against HIV |  | effective against HIV |  |  | +++ (excellent (+++, greater than 70% activity)) |  | +++ (excellent (+++, greater than 70% activity)) |  | +++ (excellent (+++, greater than 70% activity)) | 12.0 ± 6.4 | 139.3 ± 41.6 | 14.5 ± 4.0 | 22.1 ± 5.7 | 
CSc1nc(NCc2ccccc2)c2cnn(C=Cc3ccccc3)c2n1 [VS1-019] | poor activity |  |  |  |  |  |  | poor activity |  |  |  |  |  |  |  | 81.3 ± 18.9 | 94.0 ± 11.2 | 46.7 ± 31.3 | 89.3 ± 25.5 | 
C(=Cn1ncc2c(NCc3ccccc3)ncnc21)c1ccccc1 [VS1-013] |  |  |  |  |  |  |  |  |  |  |  |  |  |  |  | 85.6 ± 3.6 | 121.3 ± 14.1 | 63.3 ± 26.0 | 116.4 ± 21.1 | 
C(=Cn1ncc2c(NC3CCCCC3)ncnc21)c1ccccc1 [VS1-012] |  |  |  |  |  |  |  | better anti-HIV activity than HU |  |  |  |  |  |  |  | 68.8 ± 10.7 | 46.3 ± 9.1 | 10.9 ± 5.0 | 18.6 ± 2.9 | 
CCCCNc1ncnc2c1cnn2C=Cc1ccccc1 [VS1-021] | poor activity |  |  |  |  |  |  | poor activity |  |  |  |  |  |  |  | 86.2 ± 13.7 | 108.0 ± 21.7 | 115.4 ± 40.4 | 97.2 ± 30.3 | 
